Experiments:
Hepatic stellate cells = experiment: PDGF-stimulated DNA synthesis (BrdU uptake, ELISA) of Hepatic stellate cells; format: cell-based, rat; settings: PDGF 25 ng/ml
Protocol: Hepatic stellate cells were isolated from a male Wistar rat liver and were cultured by the liver perfusion method with pronase E and collagenase. Hepatic stellate cells on day 8 to day 14 were cultured overnight in a culture medium containing 10 vol. % fetal calf serum (FCS). The culture medium was replaced with a culture medium containing 0.1 vol. % FCS, and it was cultured for 48 hours. Subsequently, L-histidine as the test substance was added in an amount to give a concentration of 1 to 30 mM. Then, further, platelet-derived growth factor (PDGF) was added to give a final concentration of 25 ng/ml, and the Hepatic stellate cells were cultured for 24 hours. Six hours before the completion of the culturing, bromodeoxyuridine (BrdU) was added to the culture system. After the completion of the culturing, the BrdU uptake into the cells was assayed by ELISA (enzyme-linked immunosorbent assay). As a control, only PDGF (at the final concentration of 25 ng/ml) was added to the culture medium. When the BrdU uptake in the control was defined as 100%, the value of each of the groups was calculated and the results are shown in FIG. 2.
In the same manner as in Example 2, the effects of L-histidine and D-histidine (individually at 30 mM) on the DNA synthesis of Hepatic stellate cells were compared with each other. When the BrdU uptake in the control was defined as 100%, the value of each of the groups was calculated and is shown in FIG. 3.
Hepatic stellate cells were isolated from male Wistar rat liver, and were cultured by the liver perfusion method with pronase E and collagenase. Hepatic stellate cells on day 8 to day 14 were cultured overnight in a culture medium containing 10 vol. % fetal calf serum (FCS). The culture medium was replaced with a 0.1 vol. % FCS culture medium, and it was cultured for 48 hours. Subsequently, L-cysteine, L-histidine or a composition of L-cysteine and L-histidine as a test substance was added thereto. […] When the BrdU uptake in the control was defined as 100%, the value of each of the groups was calculated and the results are shown in FIG. 4.

[1] = tested on: liver fibrosis induced by dimethylnitroseamine (DMN) in SD rat; experiment: DMN-induced liver fibrosis in rat, amount of hydroxyproline (Hyp) in the liver; format: in vivo; settings: male SD rat, DMN 10 mg/kg i.p. three times weekly for 3 weeks; His 0.2, 0.5, 1.0, 2.0 wt. % in feed, oral; day 21; FIG. 1
Protocol: Dimethylnitroseamine (DMN) was administered intraperitoneally at 10 mg/kg three times weekly to a male 9-week-old SD rat for 3 weeks to induce liver fibrosis. A commercially available feed or experimental diets prepared by adding L-histidine (His) as a test substance at concentrations of 0.2, 0.5, 1.0, and 2.0 wt. % to a commercially available feed were fed beginning on the day of start of DMN administration and thereafter. On day 21 from the start of the DMN administration, the liver was collected to assay the amount of hydroxyproline (Hyp) in the liver as a liver fibrosis marker, using an amino acid analyzer.

[2] = tested on: Human normal lung fibroblast cells (HLF-1 cell); experiment: DNA synthesis (BrdU uptake, ELISA) of human normal lung fibroblast cells stimulated with PDGF or FCS; format: cell-based; settings: HLF-1, 10 or 30 mM, 24 hours
Protocol: Human normal lung fibroblast cells (HLF-1 cell) were cultured overnight in a culture medium containing 10 vol. % fetal calf serum (FCS). Subsequently, the culture medium was replaced with a 0.1 vol. % FCS culture medium, and it was cultured for 24 hours. Subsequently, L-histidine (His) as the test substance was added so that the concentration was 10 or 30 mM. Then, further, platelet-derived growth factor (PDGF) was added to give a final concentration of 25 ng/ml or FCS was added to give a final concentration of 5 vol. %, and the HLF-1 cells were cultured for 24 hours. Six hours before the completion of the culturing, bromodeoxyuridine (BrdU) was added to the culture system. After the completion of the culturing, the BrdU uptake into the cells was assayed by ELISA (enzyme-linked immunosorbent assay). As a control, only PDGF (at the final concentration of 25 ng/ml) or FCS (at the final concentration of 5 vol. %) was added to the culture medium.

[3] = tested on: Human kidney mesangial cells; experiment: DNA synthesis (BrdU uptake, ELISA) of human kidney mesangial cells stimulated with FCS; format: cell-based; settings: 10 or 30 mM, FCS 5 vol. %, 24 hours; FIG. 6
Protocol: Human kidney mesangial cells were cultured overnight in a culture medium containing 10 vol. % fetal calf serum (FCS). Subsequently, the culture medium was replaced with a 0.1 vol. % FCS culture medium, and it was cultured for 24 hours. Subsequently, L-histidine (His) as a test substance was added in an amount to give a concentration of 10 or 30 mM. Then, further, FCS was added to give a final concentration of 5 vol. %, and the mesangial cells were cultured for 24 hours. Six hours before the completion of the culturing, bromodeoxyuridine (BrdU) was added to the culture system. After the completion of the culturing, the BrdU uptake into the cells was assayed by ELISA (enzyme-linked immunosorbent assay). As a control, only 5 vol. % FCS was added to the culture medium. When the BrdU uptake in the control was defined as 100%, the value of each of the groups was calculated and the results are shown in FIG. 6.

[4] = tested on: liver damage due to D-galactosamine administration; settings: rat given L-histidine; cited from earlier work
[5] = 30 mM, levels of suppression of L- and D-form almost equal, FIG. 3

SMILES	DNA synthesis of Hepatic stellate cells activated with PDGF (BrdU uptake) (Hepatic stellate cells; [5])	amount of Hyp in the liver (liver fibrosis marker) [1]	DNA synthesis of Hepatic stellate cells activated with PDGF (BrdU uptake) (Hepatic stellate cells; 1 to 30 mM, 24 hours, dose-dependent, FIG. 2)	DNA synthesis of human normal lung fibroblast cell with FCS (BrdU uptake) ([2]; FCS 5 vol. %, FIG. 5b)	DNA synthesis of human normal lung fibroblast cell with PDGF (BrdU uptake) ([2]; PDGF 25 ng/ml, FIG. 5a)	DNA synthesis of human kidney mesangial cell with FCS (BrdU uptake) [3]	liver damage due to D-galactosamine administration [4]
N[C@H](Cc1c[nH]cn1)C(=O)O [D-histidine]	strongly suppressed	–	–	–	–	–	–
N[C@@H](Cc1c[nH]cn1)C(=O)O [L-histidine]	strongly suppressed	significantly decreased	strongly suppressed	strongly suppressed	strongly suppressed	strongly suppressed	can be reduced

Reference: patent US7094797B2, “Organ fibrosis inhibitor” (Ajinomoto Co., Inc., priority 2001, dated 2006)
